Counter-ions that a name gives are not always drawn.
What was measured:
[1] = system: mice; experiment: Phenol red expectoration test in mice; type: in vivo, mouse; details: for Excretory amount of phenol red (OD value): 30 mg/kg as free alkali, twice via tail vein, trachea phenol red at 546 nm, x ± s, n=12; for Excretory amounts of phenol red compared with the control group (in words) / Excretory amounts of phenol red compared with the ambroxol hydrochloride group (in words): 30 mg/kg; for Excretory amounts of phenol red compared with the control group (in words): p<0.05 vs control; for Excretory amounts of phenol red compared with the ambroxol hydrochloride group (in words): P<0.05 vs ambroxol hydrochloride
Experimental: Phenol Red Expectoration Test in Mice
Methods: Seventy-two female and male mice are randomLy allocated into a control group (normal saline), an Example 1 group (30 mg/kg, as free alkali), an Example 3 group (30 mg/kg, as free alkali), an Example 5 group (30 mg/kg, as free alkali), an Example 12 group (30 mg/kg, as free alkali) and an ambroxol hydrochloride group (30 mg/kg, as free alkali) (n=12 mice); These mice are administrated twice in successive via tail veins with corresponding products (dissolved in normal saline to adjust pH) or normal saline, and then receive 5% phenol red saline solution (0.5 g/kg) by hypodermic administration 15 mins after the last dose. […] The effects on excretory amounts of phenol red from trachea of mice among groups are analyzed and compared, and results are shown in Table 2: […]

[2] = system: SD rats; experiment: Capillary expectoration test in rats; type: in vivo, rat; details: for 90-min length of phlegm expelled: SD rats, 15 mg/kg via tail vein, capillary tube in trachea, x ± s, n=10; for Expectorant effect compared with the ambroxol hydrochloride group (in words): rats, 15 mg/kg, P<0.05 vs ambroxol hydrochloride
Experimental: Capillary Expectoration Test in Rats
The female and male SD rats with body weights ranging from 180 g to 220 g are randomLy allocated into 9 groups (n=10 rats). Before measuring the length of phlegm expelled, the rats are prohibited to eat but allowed to drink for 12 hrs, and then administrated via tail veins with corresponding products (dissolved in normal saline to adjust pH) or normal saline. After 30 mins, urethane saline solution (1 g/kg) is injected intraperitoneally for anesthesia, and the rats are fixed in a supine position for neck incision and trachea separation. […] The angle between the capillary tube and the trachea is adjusted to collect the phlegm, and the expectoration effect is evaluated based on a total length (mm) of the phlegm in the capillary tube.

[3] = Pharmacokinetics test in rats; type: in vivo, rat; details: intravenous; for MRT / clearance / half-life / AUC(0-inf): both sexes, rat, plasma, 10 mg/kg as free alkali; for MRT / clearance / half-life: n=6; for AUC(0-inf): n=6, read-out: AUC AUC0-inf; for Half-life, clearance, MRT and AUC compared with the ambroxol hydrochloride group (in words): P<0.05
Experimental: Pharmacokinetics Test in Rats
Methods: Twenty-four female and male rats are randomLy allocated into an Example 1 compound group (10 mg/kg, as free alkali), an Example 3 compound group (10 mg/kg, as free alkali), an Example 12 compound group and an ambroxol hydrochloride group (10 mg/kg, as free alkali) (n=6); These rats are given corresponding products (dissolved in normal saline to adjust pH) intravenously. About 0.2 mL of blood samples is respectively collected from jugular veins before and 15.0 min, 30.0 min, 1.0 h, 2.0 h, 3.0 h, 4.0 h, 6.0 h, 8.0 h, 12.0 h and 24.0 h after the administration, and then centrifuged at a high speed (7800×g) for 15 min in a tube containing EDTA-K2. The separated plasma is stored at −15° C.˜−35° C.

SMILES | Excretory amount of phenol red (OD value) [1] | Excretory amounts of phenol red compared with the control group (in words) [1] | 90-min length of phlegm expelled [2] | MRT [3] | clearance [3] | half-life [3] | AUC(0-inf) [3] | Excretory amounts of phenol red compared with the ambroxol hydrochloride group (in words) [1] | Expectorant effect compared with the ambroxol hydrochloride group (in words) [2] | Half-life, clearance, MRT and AUC compared with the ambroxol hydrochloride group (in words) [3]
Nc1c(Br)cc(Br)cc1CN[C@H]1CC[C@H](O)CC1 [Ambroxol hydrochloride, reference compound] | 0.131 ± 0.015 OD value | significantly increase | 29.9 ± 4.96 mm | 1.18 ± 0.2 h | 101 mL/min/kg | 1.98 ± 0.34 h | 1650 ± 71.9 ng·h/mL | – | – | –
Nc1c(Br)cc(Br)cc1CNC12CC3CC(CC(O)(C3)C1)C2 [Example 1, 3-((2-amino-3,5-dibromobenzyl)amino)adamantane-1-ol] | 0.220 ± 0.063 OD value | significantly increase | 39.9 ± 5.35 mm | 2.58 ± 0.41 h | 34.9 mL/min/kg | 3.58 ± 0.45 h | 4470 ± 250 ng·h/mL | remarkably superior to the ambroxol hydrochloride | remarkably superior to the ambroxol hydrochloride | significantly superior to the ambroxol hydrochloride group
Nc1c(Br)cc(Br)cc1CN[C@@H]1CCC[C@H]1O [Example 3, (1R,2R)-2-((2-amino-3,5-dibromobenzyl)amino)-cyclopentanol] | 0.218 ± 0.052 OD value | significantly increase | 37.8 ± 6.45 mm | 2.31 ± 0.36 h | 47.7 mL/min/kg | 3.12 ± 0.34 h | 3650 ± 180 ng·h/mL | remarkably superior to the ambroxol hydrochloride | remarkably superior to the ambroxol hydrochloride | significantly superior to the ambroxol hydrochloride group
CC12CC3CC(C1)CC(NCc1cc(Br)cc(Br)c1N)(C3)C2 [Example 5, (2-amino-3,5-dibromobenzyl)-3-methyl-adamantane-1-amine] | 0.201 ± 0.062 OD value | – | 36.9 ± 5.45 mm | – | – | – | – | – | – | –
Nc1c(Br)cc(Br)cc1CNC12CC3CC(C1)CC(C(F)(F)F)(C3)C2 [Example 6, (2-amino-3,5-dibromobenzyl)-3-trifluoromethyl-adamantane-1-amine] | – | – | 35.2 ± 4.79 mm | – | – | – | – | – | – | –
Nc1c(Br)cc(Br)cc1CN[C@@H]1CCC[C@@H]1C(F)(F)F [Example 7, (1R,2S)-2-trifluoromethyl-((2-amino-3,5-dibromobenzyl)amino)-cyclopentane] | – | – | 31.8 ± 5.73 mm | – | – | – | – | – | – | –
Nc1c(Br)cc(Br)cc1CNC12CC3CC(CC(C3)C1F)C2 (stereo not drawn) [Example 8, (2-amino-3,5-dibromobenzyl)-2-fluoro-adamantane-1-amine] | – | – | 35.8 ± 5.98 mm | – | – | – | – | – | – | –
Nc1c(Br)cc(Br)cc1CNC1C2CC3CC1CC(O)(C3)C2 (stereo not drawn) [Example 12, 4-((2-amino-3,5-dibromobenzyl)amino)adamantane-1-ol] | 0.221 ± 0.059 OD value | significantly increase | 39.8 ± 5.31 mm | 2.65 ± 0.42 h | 35.8 mL/min/kg | 3.43 ± 0.35 h | 4490 ± 240 ng·h/mL | remarkably superior to the ambroxol hydrochloride | remarkably superior to the ambroxol hydrochloride | significantly superior to the ambroxol hydrochloride group

Reference: patent publication US12006276B2, “Dibromobenzyl derivative, stereoisomer or salt thereof, and preparation method and application of dibromobenzyl derivative” (CHENGDU SHIBEIKANG BIOMEDICAL TECHNOLOGY CO., LTD., priority 2019, dated 2024)
